One experiment deals with DOPAC. The experiment in a line: Neurochemistry: tissue levels of DOPAC in brain regions. Particulars: 33 μmol/kg s.c., rats, 65 min before sacrifice, n = 5; for DOPAC frontal cortex ± SEM: frontal cortex tissue; for DOPAC striatum ± SEM: striatum tissue. It counts as in vivo, rat. The text has this:
The change in turnover of dopamine in the terminal areas of the ascending dopaminergic projections of the mammalian brain can be illustrated by measuring of changes in biochemical indices in the brain e.g. changes in concentrations of dopamine metabolites such as 3,4-dihydroxyphenyl-acetic acid (DOPAC) in the striatum and frontal cortex.
The measurement of the tissue content of DOPAC is well established in the field of research since the 1960's. In short, male Sprague-Dawley rats are administered the test compound 60 minutes prior to decapitation. The brain is rapidly taken out and dissected. The striatum is rapidly frozen and subsequently quantitatively analyzed with respect to its content of DOPAC by means of HPLC and electrochemical detection. The number of animals used for each test compound/vehicle is 5/group.
After the behavioural activity sessions, the rats were decapitated and their brains rapidly taken out and put on an ice-cold petri-dish. The brains were dissected into a right and a left part of which the right part was analyzed for neurochemicals with HPLC and the left part was analyzed for gene expression. The limbic forebrain, the striatum, the frontal cortex, the hippocampus and the remaining hemispheral parts of each rat were dissected and frozen. Each brain part was subsequently analyzed with respect to its content of monoamines and their metabolites.
The monoamine transmitter substances (NA (noradrenaline), DA (dopamine), 5-HT (serotonin)) as well as one corresponding acid, (DOPAC (3,4-dihydroxyphenylacetic acid), were quantified in brain tissue homogenates by HPLC separations and electrochemical detection.
The analytical method is based on two chromatographic separations dedicated for amines or acids. Two chromatographic systems share a common auto injector with a 10-port valve and two sample loops for simultaneous injection on the two systems. Both systems are equipped with a reverse phase column (Luna C18 (2), dp 3 μm, 50*2 mm i.d., Phenomenex) and electrochemical detection is accomplished at two potentials on glassy carbon electrodes (MF-1000, Bioanalytical Systems, Inc.). The column effluent is passed via a T-connection to the detection cell or to a waste outlet. This is accomplished by two solenoid valves, which block either the waste or detector outlet. By preventing the chromatographic front from reaching the detector, better detection conditions are achieved. The aqueous mobile phase (0.4 ml/min) for the acid system contains citric acid 14 mM, sodium citrate 10 mM, Methanol 15% (v/v) and EDTA 0.1 mM. Detection potentials relative to Ag/AgCl reference are 0.45 and 0.60V. […] Detection potentials relative to Ag/AgCl reference are 0.45 and 0.65V.

Experiment [1] relates to monoamine transmitters (NA, DA and 5-HT). As to the kind of experiment: In vivo brain microdialysis of monoamines in striatum and frontal cortex. Set-up: species or system rat. The settings on record: rats; for response vs control in vivo at 16.7 µmol/kg: Rattus norvegicus, sc. The text has this:
The microdialysis technique (See, for instance, Collin and Ungerstedt, Microdialysis: user's guide, Carnegie Medicin, Stockholm, 1988) is a well-established technique for measuring extracellular levels of neurotransmitters (Ungerstedt, J Int Med, 1991, 230; 365-73). The microdialysis technique was used to measure the effect of compounds disclosed herein upon the efflux of monoamine transmitters (NA, DA and 5-HT) in striatum and frontal cortex in conscious, freely moving rats.
Male Sprague-Dawley rats weighing 280-320 g were used throughout the experiments. Before the experiment the animals were housed in groups, maximum five animals in each cage, with free access to water and food. The animals were housed at least one week prior to surgery and use in the experiments.
A modified version (Waters et al., J Neural Transm Gen Sect, 1994, 98(1); 39-55) of the I-shaped probe (Santiago and Westerink, N-S Arch Pharmacol, 1990, 342; 407-14) with the AN69 polyacrylonitrile/sodium methyl sulfonate copolymer (HOSPAL; o.d/i.d. 310/220 μm: dialysis membrane (Gambro, Lund, Sweden) was used in the microdialysis experiments. In the dorsal striatum, probes with an exposed length of 3 mm of dialysis membrane were used and in the prefrontal cortex the corresponding length was 2.5 mm. The rats were operated under isoflurane inhalation anesthesia while mounted into a Kopf stereotaxic instrument. Coordinates were calculated relative to bregma; dorsal striatum AP+1.0, ML±2.6, DV 6.2; Pf cortex, AP 15+3.2, ML+1.2, DV −4.08°, according to Paxinos and Watson (New York, Academic Press, 1986; FIG. 8 and FIG. 14). The dialysis probe was positioned in a burr hole under stereotaxic guidance and cemented with phosphatine dental cement (DAB Dental).
The rats were housed individually in cages for 48 h before the dialysis experiments, allowing them to recover from surgery and minimizing the risk of drug interactions with the anesthetics during the following experiments. During this period the rats had free access to food and water.
On the day of the experiment the rats were connected to a micro-perfusion pump via a swivel and were replaced in the cage where they could move freely within its confinements. The perfusion medium was a Ringer's solution containing (in mmol/I): NaCl; 140, CaCl2; 1.2, KCl; 3.0, MgCl2; 1.0 (Moghaddam and Bunney. Neurochem., 1989, 53; 652-4). The pump was set to a perfusion speed of 2 μl/min and 40 μl sample volume were collected every 20 min.
The rats were perfused for at least 40 min before sampling began. Five fractions of each 20 min were collected and the last three were used for the establishment of the baseline. After collection of baseline fractions, the pharmacological challenge to the dialysis experiment started. Test compounds were administrated by injection (s.c.) in a volume of 5 ml/kg, with 0.9% NaCl (saline) as vehicle.
The analytical method were based on two chromatographic separations dedicated for amines or acids. Two chromatographic systems shared a common auto injector with a 10-port valve and two sample loops for simultaneous injection on the two systems.
The acids were separated by reversed phase chromatography while the amines were separated by reversed phase ion pairing chromatography preceded by a reverse phase separation in a column switching configuration. Three separation columns (Luna C18 (2), dp 3 μm, 2 mm i.d., Phenomenex) of different lengths were used. Electrochemical detection was accomplished on glassy carbon electrodes (MF-1000, Bioanalytical Systems, Inc.)
The aqueous mobile phase (0.6 ml/min) for the acid system contained citric acid (40 mM, dipotassium hydrogen phosphate 10 mM, methanol 8-11% (v/v) and EDTA 0.1 mM. Column length was 30 mm and detection potential relative to Ag/AgCl reference was 0.74V. […]

Setting [2] is: 50 μmol/kg s.c., striatum dialysate.
The mark [3] stands for this setting: 16.7 μmol/kg s.c., striatum dialysate, read-out: DA Stri ± SEM, maximum effect compared to baseline.
The mark [4] stands for this setting: 16.7 μmol/kg s.c., frontal cortex dialysate, Fumarate Salt.
Setting [5] is: 16.7 μmol/kg s.c., striatum dialysate, Fumarate Salt.

2 molecules from patent publication US10087142B2, “Azetidine derivatives useful as modulators of cortical cathecolaminergic neurotransmission” (Integrative Research Laboratories Sweden AB, priority 2015, dated 2018) can be followed below.

Read-outs that look alike come from different tables or passages of the source. Marks after values point to notes of the source that are not given here.

For `Cl.Fc1cccc(C(F)C2CNC2)c1F` (single isomer, unassigned; (-)) [Example 1, (−)-3-[(2,3-Difluorophenyl)(Fluoro)Methyl]Azetidine Hydrochloric Acid Salt], the “DOPAC frontal cortex ± SEM” value with DOPAC is reported as 188 ± 20% of control means. In the experiment with DOPAC, the “DOPAC striatum ± SEM” value is given as 100 ± 8% of control means. Besides, the “NA Stri ± SEM, maximum effect compared to baseline” value in experiment [1] (16.7 μmol/kg s.c., striatum dialysate) was 150 ± 30^c percent of control; in experiment [1] (setting [2]), 145^a percent of control. Also, the “5-HT FC ± SEM, maximum effect compared to baseline” value in experiment [1] (50 μmol/kg s.c., frontal cortex dialysate) is 188 ± 16^c percent of control. Also, in experiment [1] (setting [2]), the “5-HT Stri ± SEM, maximum effect compared to baseline” value is listed as 184^a percent of control. For the same molecule, the “DA Stri ± SEM, maximum effect compared to baseline” value in experiment [1] (setting [2]) is 204 ± 90^b percent of control. The response vs control in vivo at 16.7 µmol/kg in experiment [1] (16.7 μmol/kg s.c., frontal cortex dialysate, read-out: 5-HT FC ± SEM, maximum effect compared to baseline) was 146 ± 8%; in experiment [1] (16.7 μmol/kg s.c., frontal cortex dialysate, read-out: DA FC ± SEM, maximum effect compared to baseline), 495 ± 58%; in experiment [1] (16.7 μmol/kg s.c., frontal cortex dialysate, read-out: NA FC ± SEM, maximum effect compared to baseline), 688 ± 102%; in experiment [1] (16.7 μmol/kg s.c., striatum dialysate, read-out: 5-HT Stri ± SEM, maximum effect compared to baseline) it was 171 ± 21%; in experiment [1] (setting [3]), 135 ± 19%.

Turning to `Fc1cc(F)cc(C(F)C2CNC2)c1.O=C(O)/C=C/C(=O)O` (single isomer, unassigned; (-)) [Example 3, (−)-3-[(3,5-Difluorophenyl)(Fluoro)Methyl]Azetidine Fumarate Salt], in the experiment on DOPAC, the “DOPAC frontal cortex ± SEM” value is reported as 161 ± 6% of control means and the “DOPAC striatum ± SEM” value is listed as 83 ± 2% of control means. Besides, in experiment [1] (setting [4]), the “5-HT FC ± SEM, maximum effect compared to baseline” value is listed as 137 ± 16^c percent of control; the “DA FC ± SEM, maximum effect compared to baseline” value is recorded as 444 ± 51^c percent of control; the “NA FC ± SEM, maximum effect compared to baseline” value is listed as 534 ± 45^c percent of control. Moreover, in experiment [1] (setting [5]), the “5-HT Stri ± SEM, maximum effect compared to baseline” value is 124 ± 6^c percent of control and the “NA Stri ± SEM, maximum effect compared to baseline” value is listed as 137^a percent of control. For the same molecule, the response vs control in vivo at 16.7 µmol/kg in experiment [1] (setting [3]) was determined as 116 ± 4%.
